This is an account of results in US20190071416A1, “COMPOUNDS FOR TREATMENT OF CANCER AND EPIGENETICS” (Agency For Science, Technology and Research, priority 2015, published 2019).

This assay concerns the target T1, SMYD3 (Homo sapiens, UniProt Q9H7B4).
T1 sequence (Q9H7B4 1-428): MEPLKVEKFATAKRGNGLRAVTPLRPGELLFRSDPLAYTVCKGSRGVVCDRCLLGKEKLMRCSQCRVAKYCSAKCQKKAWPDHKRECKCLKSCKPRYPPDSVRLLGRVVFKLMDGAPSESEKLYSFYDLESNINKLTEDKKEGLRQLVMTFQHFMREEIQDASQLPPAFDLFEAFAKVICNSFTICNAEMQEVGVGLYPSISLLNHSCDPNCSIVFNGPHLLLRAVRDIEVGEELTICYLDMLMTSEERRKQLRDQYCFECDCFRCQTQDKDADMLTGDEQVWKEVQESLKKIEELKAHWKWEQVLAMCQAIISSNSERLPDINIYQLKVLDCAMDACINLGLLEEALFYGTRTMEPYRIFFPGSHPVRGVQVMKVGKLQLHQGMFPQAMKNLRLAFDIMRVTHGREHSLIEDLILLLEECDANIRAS
The assay can be described thus: SMYD3 biochemical assay (MTase-Glo, MAP3K2 peptide substrate). To be noted: Table 3; MTase assay, MAP3K2 peptide substrate; read-out: IC50. The procedure, abridged: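 Luminescent readout of SAH production (coupled SAH→ATP conversion, MTase-Glo) after SMYD3 reacted 30 min at room temperature with 1.0 µM SAM and 10 µM MAP3K2 peptide, both final. Non-linear regression gave IC50 values.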

The term IC50 denotes the concentration that gives 50% inhibition. In the case of `CCCOC(=O)N1CCN(C(=O)c2ccc3c(Cl)cc(-c4ccc(F)c(OC)c4)nc3c2)C[C@H]1C` [B088, Propyl (R)-4-(4-chloro-2-(4-fluoro-3-methoxyphenyl)quinoline-7-carbonyl)-2-methylpiperazine-1-carboxylate], the IC50 worked out at 14 nM.
On to `CCCOC(=O)N1CCN(C(=O)c2ccc3c(Cl)cc(-c4ccc(C(C)(C)O)cc4)nc3c2)C[C@@H]1C` [B270, Propyl (S)-4-(4-chloro-2-(4-(2-hydroxypropan-2-yl)phenyl)quinoline-7-carbonyl)-2-methylpiperazine-1-carboxylate], for which the IC50 stood at 16 nM.
With `CCCOC(=O)N1CCN(C(=O)c2ccc3c(Cl)cc(Cc4ccccc4)nc3c2)CC1` [B009, Propyl 4-(2-benzyl-4-chloroquinoline-7-carbonyl)piperazine-1-carboxylate], the IC50 came to 3300 nM.
Take `CC(C)Cc1cc(C(=O)N2CCN(C(=O)c3ccc4c(Cl)c5c(nc4c3)CCCC5)CC2)no1` [A007, (9-Chloro-5,6,7,8-tetrahydroacridin-3-yl)(4-(5-isobutylisoxazole-3-carbonyl)piperazin-1-yl)methanone]: the IC50 stood at 6900 nM.
As for `CCCOC(=O)N1C2CCCC1CN(C(=O)c1ccc3c(Cl)cc(-c4ccccc4)nc3c1)C2` [B081, Propyl 3-(4-chloro-2-phenylquinoline-7-carbonyl)-3,9-diazabicyclo[3.3.1]nonane-9-carboxylate], the half-maximal inhibitory concentration (IC50) turned out to be 470 nM.
For `CCCOC(=O)N1CCN(C(=O)c2ccc3c(Cl)cc(-c4ccn(S(C)(=O)=O)c4)nc3c2)CC1` [B252, Propyl 4-(4-chloro-2-(1-(methylsulfonyl)-1H-pyrrol-3-yl)quinoline-7-carbonyl)piperazine-1-carboxylate] the value was 520 nM; for `CCCOC(=O)N1CCN(C(=O)c2ccc3c(Cl)cc(-c4ccc(F)c(C(=O)N(C)C)c4)nc3c2)CC1` [B154, Propyl 4-(4-chloro-2-(3-(dimethylcarbamoyl)-4-fluorophenyl)quinoline-7-carbonyl)piperazine-1-carboxylate], 2290 nM.
For the compound `CCCOC(=O)N1CCN(C(=O)c2ccc3c(Cl)cc(-c4ccc(C(C)N(C)C)cc4)nc3c2)C[C@H]1C` (stereo partly drawn) [B284, Propyl (2R)-4-(4-chloro-2-(4-(1-(dimethylamino)ethyl)phenyl)quinoline-7-carbonyl)-2-methylpiperazine-1-carboxylate], the IC50 came to 24 nM.
In the case of `CCCOC(=O)N1CCN(C(=O)c2ccc3c(Cl)cc(-c4cccc(-n5cnnc5)c4)nc3c2)C[C@H]1C` [B096, Propyl (R)-4-(2-(3-(4H-1,2,4-triazol-4-yl)phenyl)-4-chloroquinoline-7-carbonyl)-2-methylpiperazine-1-carboxylate], the IC50 was 310 nM.
As for `CCCOC(=O)N1CCN(C(=O)c2ccc3c(Cl)c4c(nc3c2)CC(CC(N)=O)CC4)CC1` (stereo not shown) [A077, Propyl 4-(6-(2-amino-2-oxoethyl)-9-chloro-5,6,7,8-tetrahydroacridine-3-carbonyl)piperazine-1-carboxylate], the 50% inhibitory concentration (IC50) was 1200 nM.
As for `CCCOC(=O)N1CCN(C(=O)c2ccc3c(Cl)cc(-c4cccc(N(C)C)c4)nc3c2)CC1` [B058, Propyl 4-(4-chloro-2-(3-(dimethylamino)phenyl)quinoline-7-carbonyl)piperazine-1-carboxylate], the half-inhibitory concentration (IC50) is 1470 nM.
In the case of `CCCOC(=O)N1CCN(C(=O)c2ccc3c(Cl)cc(-c4cccc(N(C)C)c4)nc3c2)C[C@H]1C` [B061, Propyl (R)-4-(4-chloro-2-(3-(dimethylamino)phenyl)quinoline-7-carbonyl)-2-methylpiperazine-1-carboxylate], the IC50 was determined as 870 nM.
With `CCCOC(=O)N1CCN(C(=O)c2ccc3c(Cl)cc(-c4ccc(CN(C)C)cc4)nc3c2)C[C@H]1C` [B098, Propyl (R)-4-(4-chloro-2-(4-((dimethylamino)methyl)phenyl)quinoline-7-carbonyl)-2-methylpiperazine-1-carboxylate], the concentration for half-maximal inhibition (IC50) is 130 nM.
On to `CCCOC(=O)N1CCN(C(=O)c2ccc3c(Cl)c4c(nc3c2)CC(c2ncccc2C)CC4)[C@H](C)C1` (stereo partly drawn) [A109, Propyl (3R)-4-(9-chloro-6-(3-methylpyridin-2-yl)-5,6,7,8-tetrahydroacridine-3-carbonyl)-3-methylpiperazine-1-carboxylate], for which the IC50 was determined as 720 nM.
As for `CCCOC(=O)N1CCN(C(=O)c2ccc3c(Cl)cc(-c4ccc5[nH]nc(C)c5c4)nc3c2)[C@@H](C)C1` [B198, Propyl (S)-4-(4-chloro-2-(3-methyl-1H-indazol-5-yl)quinoline-7-carbonyl)-3-methylpiperazine-1-carboxylate], the half-inhibitory concentration (IC50) stood at 200 nM.
As for `CCCOC(=O)N1CCN(C(=O)c2ccc3c(Cl)cc(-c4ccc(-n5cccn5)cc4)nc3c2)CC1` [B134, Propyl 4-(2-(4-(1H-pyrazol-1-yl)phenyl)-4-chloroquinoline-7-carbonyl)piperazine-1-carboxylate], the IC50 was determined as 600 nM.
Turning to `CCCOC(=O)N1CCN(C(=O)c2ccc3c(Cl)cc(-c4ccc(C(=O)O)c(C)c4)nc3c2)CC1` [B137, 4-(4-Chloro-7-(4-(propoxycarbonyl)piperazine-1-carbonyl)quinolin-2-yl)-2-methylbenzoic acid], the IC50 is 3600 nM.
Take `CCCOC(=O)N1CCN(C(=O)c2ccc3c(Cl)c4c(nc3c2)CCCC4)CC1C#N` (stereo not shown) [A117, Propyl 4-(9-chloro-5,6,7,8-tetrahydroacridine-3-carbonyl)-2-cyanopiperazine-1-carboxylate]: the IC50 was 120 nM.
Consider `CCCOC(=O)N1CCN(C(=O)c2ccc3c(Cl)cc(-c4cccc(CN5CCOCC5)c4)nc3c2)CC1` [B105, Propyl 4-(4-chloro-2-(3-(morpholinomethyl)phenyl)quinoline-7-carbonyl)piperazine-1-carboxylate], for which the IC50 is 860 nM.
As to `CCCOC(=O)N1CCN(C(=O)c2ccc3c(Cl)cc(-c4cnn(C(C)C)c4)nc3c2)CC1` [B229, Propyl 4-(4-chloro-2-(1-isopropyl-1H-pyrazol-4-yl)quinoline-7-carbonyl)piperazine-1-carboxylate], the IC50 came out at 1100 nM.
`CCCOC(=O)N1CCN(C(=O)c2ccc3c(Cl)c4c(nc3c2)CCCC4)C(C)C1C` (stereo not shown) [A033, Propyl 4-(9-chloro-5,6,7,8-tetrahydroacridine-3-carbonyl)-2,3-dimethylpiperazine-1-carboxylate]: the half-maximal inhibitory concentration (IC50) amounted to 1800 nM.
For `CCCOC(=O)N1CCN(C(=O)c2ccc3c(Cl)cc(-c4cnc5[nH]nc(C)c5c4)nc3c2)CC1` [B173, Propyl 4-(4-chloro-2-(3-methyl-1H-pyrazolo[3,4-b]pyridin-5-yl)quinoline-7-carbonyl)piperazine-1-carboxylate], the half-inhibitory concentration (IC50) was 2500 nM.
Take `CCCOC(=O)N1CCN(C(=O)c2ccc3c(Cl)cc(-c4cccc(C)c4)nc3c2)CC1` [B011, Propyl 4-(4-chloro-2-(m-tolyl)quinoline-7-carbonyl)piperazine-1-carboxylate]: the IC50 worked out at 770 nM.
Regarding `CCCOC(=O)N1CCN(C(=O)c2ccc3c(Cl)cc(-c4ccc(CN(C)C)s4)nc3c2)CC1` [B126, Propyl 4-(4-chloro-2-(5-((dimethylamino)methyl)thiophen-2-yl)quinoline-7-carbonyl)piperazine-1-carboxylate], the IC50 is 89 nM.
For `CCCOC(=O)N1CCN(C(=O)c2ccc3c(Cl)cc(-c4ccc(C(=O)NC)cc4)nc3c2)C[C@@H]1C` [B189, Propyl (S)-4-(4-chloro-2-(4-(methylcarbamoyl)phenyl)quinoline-7-carbonyl)-2-methylpiperazine-1-carboxylate] the value was 69 nM.
As to `CCCOC(=O)N1C2CCC1CN(C(=O)c1ccc3c(Cl)c4c(nc3c1)CCCC4)C2` [A009, Propyl 3-(9-chloro-5,6,7,8-tetrahydroacridine-3-carbonyl)-3,8-diazabicyclo[3.2.1]octane-8-carboxylate], the IC50 was 360 nM.
For `CCCOC(=O)N1CCN(C(=O)c2ccc3c(Cl)cc(-c4ccc(CN=[N+]=[N-])cc4)nc3c2)CC1` [B264, Propyl 4-(2-(4-(azidomethyl)phenyl)-4-chloroquinoline-7-carbonyl)piperazine-1-carboxylate] the value was 84 nM; for `CCCOC(=O)N1CCN(C(=O)c2ccc3c(Cl)c4c(nc3c2)CCCC4)CC1COC(=O)CCOC` (stereo not shown) [A055, Propyl 4-(9-chloro-5,6,7,8-tetrahydroacridine-3-carbonyl)-2-(((3-methoxypropanoyl)oxy)methyl)-piperazine-1-carboxylate], 2400 nM.
For `CCCOC(=O)N1CCN(C(=O)c2ccc3c(Cl)cc(-c4ccc5ocnc5c4)nc3c2)CC1` [B213, Propyl 4-(2-(benzo[d]oxazol-5-yl)-4-chloroquinoline-7-carbonyl)piperazine-1-carboxylate], the IC50 is 330 nM.
`CCCOC(=O)N1CCN(C(=O)c2ccc3c(Cl)cc(-c4ccc(C5(N)CC5)cc4)nc3c2)C[C@H]1C` [B281, Propyl (R)-4-(2-(4-(1-aminocyclopropyl)phenyl)-4-chloroquinoline-7-carbonyl)-2-methylpiperazine-1-carboxylate]: the IC50 was 12 nM.
Consider `CNC(=O)c1ccc(-c2cc(Cl)c3ccc(C(=O)N4CCN(C(=O)OCCF)CC4)cc3n2)cc1` [B247, 2-Fluoroethyl 4-(4-chloro-2-(4-(methylcarbamoyl)phenyl)quinoline-7-carbonyl)piperazine-1-carboxylate], for which the concentration for half-maximal inhibition (IC50) is 7400 nM.
